Data set [1] deals with inflammatory cytokine IL-8. Kind of data set: Mouse model for Acne vulgaris induced by Propionibacterium acnes, IL-8 ELISA in ear homogenate supernatants. It counts as in vivo, Balb/c strain mice. As for the experimental part: For the experiment, female Balb/c strain mice were used, grouped according to the experimental plan shown below in Table 5: [table] The sham group consisted of mice which received an intradermal injection, in each ear, of 25 μl of D-PBS (Dulbecco's phosphate buffered saline), while the other two groups consisted of mice which received an intradermal injection, in each ear, of 25 μl of D-PBS containing 10^8 CFU (colony-forming units) of Propionibacterium acnes. As of the day following the injection: • the sham group of mice was not treated; • the control group was treated, once a day, for 7 consecutive days, directly to the sites of inoculation of the bacterium, with a topical application of the formulation without active principle, i.e. with the carrier, consisting of three parts of paraffin oil and two parts of filamentary vaseline; • the […], once a day, for 7 consecutive days, directly to the sites of inoculation of the bacterium), with a topical application of the formulation containing xibornol in a concentration of 0.1% (corresponding to 0.79 mg/mL) in the carrier, consisting of three parts of paraffin oil and two parts of filamentary vaseline. The mice were sacrificed 24 hours after the last topical application. […]
(An ELISA detects its analyte on a solid surface through an enzyme-linked reagent.)

Data set [2] has as its system RHE EPISKIN artificial epidermis. Kind of data set: Skin irritation and sensitisation test (OECD TG 404), MTT viability. It counts as cell-based, human. Conditions: liquid formulations of xibornol, isopropanol and PBS buffer; 42' contact, assessed after 42 hours. As for the experimental part: In order to establish the usable concentrations of xibornol in solution for the production of pharmaceutical forms intended for external topical use, a skin irritation and sensitisation test was carried out, according to standard OECD TG 404, method B.4, Annex V, Directive 67/548/EEC. A RHE EPISKIN artificial epidermis unit was used for the test. The kit consisted of 24 reconstructed epidermis units with a total area of 0.33 cm^2. Each unit consisted of a collagen matrix with a stratified, differentiated epidermis derived from human keratinocytes placed on top thereof. The substances to be tested were placed in contact (42′) with the epidermis and the effects assessed after 42 hours, incubating the units with MTT (3-(4,5-dimethylthiazol-2-yl)-2,5-diphenyltetrazolium bromide) which, under the experimental conditions, reduced to formazan upon contact with metabolically active cells, turning the coloured solution from yellow into blue. Since the obtained colour is directly proportional to the concentration of formazan, and therefore to the cell viability, after incubation with MTT for 3 hours, optical density readings were taken by using the spectrophotometer (DO 572-650 nm).

The subject of data set [3] is Propionibacterium acnes. The experiment in a line: Determination of the minimum bactericidal concentration (MBC), inoculation on RCA plates. It counts as cell-based. On the procedure: (§1) Two strains of Propionibacterium acnes were used for this test: the Grerath strain (ATCC-11827) and the VPI 0389 strain (ATCC-6919).
(§2) Clostridial differential broth (CDB, liquid medium) and reinforced clostridial agar (RCA, solid medium) were used for the culture. Growth occurred under anaerobic conditions obtained in a 7.0 L GENBOX JAR.
(§3) The anaerobic conditions were obtained by activating the Anaerocult A preparation and the anaerobiosis control was assessed by using ANAEROTEST strips for microbiology.
(§4) The Propionibacterium acnes was incubated at 37° C. for 72 hours.
To determine the minimum bactericidal concentration (MBC), 10 μl of solution was taken from each well on the above described plate and inoculated on RCA plates containing the same concentrations of xibornol in 4% isopropanol present in the wells of the plate.

Data set [4] relates to Propionibacterium acnes. The experiment in a line: Determination of the minimum inhibitory concentration (MIC), 96-well broth plate, OD 600 nm and PrestoBlue. It counts as cell-based. As for the experimental part:
as §1, §2, §3, §4
Propionibacterium acnes strains were reactivated from ATCC vials, rehydrated with CDB medium, and then seeded on RCA plates.
To cultivate Propionibacterium acnes in broth, isolated colonies were taken from culture plates and inoculated in the CBD medium.
After culturing, the concentration of bacterial cells was normalised using the McFarland 0.5 standard.
A 96-well plate was prepared in order to establish the minimum inhibitory concentration; the xibornol was dissolved in a 4% isopropanol solution in various concentrations, and the samples were prepared according to the experimental plan shown in the following table 1.
All the wells in rows D, E, F and the first three wells from the left in row H contained Propionibacterium acnes at the final concentration of 5×10^5 bacteria/mL.
Row G (wells 1, 2, 3) was the negative control and contained only the culture medium, without bacteria, xibornol, or isopropanol.
Row H (wells 1,2,3) was the positive control and contained the bacterial culture without xibornol or isopropanol.
Unmarked wells were empty.
The reading of the plate, after an incubation under anaerobic conditions at 37° C., was performed after 72 hours.
A first spectrophotometer reading was taken, including measurement of the OD (optical density) at 600 nm.
To highlight the presence or absence of bacterial growth on the plate described above, PrestoBlue was also used, which is a resazurin-based solution which uses the reducing power of cells to measure cell proliferation. Said solution is blue and turns into red upon contact with live bacterial cells.
After having incubated the plate with the PrestoBlue and read the fluorescence values by using a Victor 3 Wallac microplate reader, the data were confirmed.

Data set [5] can be described thus: Dissolution of xibornol in 4% isopropanol. It counts as physicochemical. As for the experimental part:
In order to perform the antimicrobial tests in aqueous solutions (broth and agar), said xibornol, a lipophilic molecule, was dissolved in a hydrophilic solvent, and more specifically in isopropanol.

In brackets after ≈: the same amount, converted by molar mass.

The term MBC denotes the lowest tested concentration that kills the bacteria rather than only halting them. In general, MIC refers to the lowest concentration found to suppress growth. Low readings indicate a more susceptible organism, high ones a less susceptible organism.

`Cc1cc(O)c(C2CC3CCC2(C)C3(C)C)cc1C` (racemic) [xibornol, 4,5-dimethyl-2-[1,7,7-trimethylbicyclo[2.2.1]heptan-2-yl]phenol]: the “Average concentration of IL-8” value in data set [1] (0.1% xibornol (0.79 mg/mL) in paraffin oil/vaseline carrier, topical once a day for 7 days, ear homogenate supernatant) is listed as 190.61 pg/mL. Further, the “change in IL-8 levels with respect to the control group” value in data set [1] (0.1% xibornol topical, once a day for 7 days) is given as “significant reduction”. Besides, in data set [2], the “concentration of xibornol administrable topically without irritation or sensitisation of the epidermis” value is “less than 5 mg/mL” and the “concentration of xibornol administrable topically without irritation or sensitisation of the epidermis, even more preferably” value is given as “less than 2.5 mg/mL”. Besides, the “minimum bactericidal concentration (MBC)” value with Propionibacterium acnes [3] (10 μl from each well inoculated on RCA plates with the same xibornol concentrations in 4% isopropanol) turned out to be 9.37 µg/mL (≈ 36.3 µM). In the data set on Propionibacterium acnes [3] (Cutibacterium acnes, 10 μl from each well inoculated on RCA plates with the same xibornol concentrations in 4% isopropanol), this compound yielded a minimum bactericidal concentration (MBC) of 4.69 to 9.37 µg/mL (≈ 18.1 to 36.3 µM). Also, the “growth on RCA plates” value in the data set on Propionibacterium acnes [3] (xibornol 4.69 μg/mL) was “massive growth, comparable to that of the positive control”. The compound also returned an MIC in the data set on Propionibacterium acnes [4] (Cutibacterium acnes, ATCC 11827 / ATCC 6919, 72 h, strains ATCC-11827 and ATCC-6919, anaerobic, 37° C., 72 hours, xibornol racemate in 4% isopropanol) of 4.69 to 9.37 µg/mL (≈ 18.1 to 36.3 µM). Besides, in the data set on Propionibacterium acnes [4] (Propionibacterium acnes), the “antibacterial efficacy compared with clindamycin” value is on record as “comparable to that of clindamycin”. In addition, the “minimum inhibitory concentration (MIC)” value with Propionibacterium acnes [4] (strains ATCC-11827 and ATCC-6919, anaerobic, 37° C., 72 hours, xibornol racemate in 4% isopropanol) is 9.37 µg/mL (≈ 36.3 µM). Further, the “bacterial growth in wells” value in the data set on Propionibacterium acnes [4] (xibornol at 4.69 μg/mL, 2.34 μg/mL, 1.17 μg/mL, 72 hours, PrestoBlue red colour) was “bacterial growth was observed”. For the same compound, the “amount of xibornol dissolved by 4% isopropanol” value in data set [5] is reported as “up to 1200 μg/mL”.

The record behind these values is patent publication US20200155478A1, “XIBORNOL FOR USE IN THE TREATMENT OF ACNE VULGARIS” (ABIOGEN PHARMA S.P.A., priority 2017, published 2020).
